Measurements published in ChEMBL document CHEMBL4020831, “Discovery of GDC-0853: A Potent, Selective, and Noncovalent Bruton's Tyrosine Kinase Inhibitor in Early Clinical Development” (J Med Chem, 2018).
pIC50: −log10 of the molar value. Values after ≈ are worked out from the molar mass of the structure shown. Active and inactive are the calls of the source. The calls are words filed in the database; no cut-off is given here.

Key:
[1] = Aqueous solubility of the compound; assay type: physicochemical; settings: buffer
[2] = test system: Rattus norvegicus; assay: Antiinflammatory activity in Lewis rat collagen-induced arthritis model assessed as reduction in ankle diameter AUC at 0.125 mg/kg, po administered bid for 16 days relative to control; assay type: functional; settings: 384 h
[3] = Plasma clearance in rat at 0.2 mg/kg, iv or 1 mg/kg, po administered as single dose via cassette dosing; assay type: ADME, organism-based
[4] = target: Cytochrome P450 2C9 (Homo sapiens, UniProt P11712); assay: Inhibition of CYP2C9 (unknown origin); assay type: ADME
[5] = Half life in rat at 0.2 mg/kg, iv or 1 mg/kg, po administered as single dose via cassette dosing; assay type: ADME, organism-based; settings: in vivo
[6] = Volume of distribution in rat at 0.2 mg/kg, iv or 1 mg/kg, po administered as single dose via cassette dosing; assay type: ADME, organism-based; settings: in vivo
[7] = test system: Salmonella typhimurium; assay: Genotoxicity in Salmonella typhimurium TA98 after 48 to 72 hrs in absence of liver S9 fraction by Ames test; assay type: toxicity; settings: salmonella enterica subsp. enterica serovar typhimurium
[8] = target: T1, TEC (Homo sapiens, UniProt P42680); assay: Inhibition of recombinant human cytoplasmic full length His-tagged TEC expressed in baculovirus at 1 uM by Z'-LYTE assay
T1 sequence (P42680 whole entry): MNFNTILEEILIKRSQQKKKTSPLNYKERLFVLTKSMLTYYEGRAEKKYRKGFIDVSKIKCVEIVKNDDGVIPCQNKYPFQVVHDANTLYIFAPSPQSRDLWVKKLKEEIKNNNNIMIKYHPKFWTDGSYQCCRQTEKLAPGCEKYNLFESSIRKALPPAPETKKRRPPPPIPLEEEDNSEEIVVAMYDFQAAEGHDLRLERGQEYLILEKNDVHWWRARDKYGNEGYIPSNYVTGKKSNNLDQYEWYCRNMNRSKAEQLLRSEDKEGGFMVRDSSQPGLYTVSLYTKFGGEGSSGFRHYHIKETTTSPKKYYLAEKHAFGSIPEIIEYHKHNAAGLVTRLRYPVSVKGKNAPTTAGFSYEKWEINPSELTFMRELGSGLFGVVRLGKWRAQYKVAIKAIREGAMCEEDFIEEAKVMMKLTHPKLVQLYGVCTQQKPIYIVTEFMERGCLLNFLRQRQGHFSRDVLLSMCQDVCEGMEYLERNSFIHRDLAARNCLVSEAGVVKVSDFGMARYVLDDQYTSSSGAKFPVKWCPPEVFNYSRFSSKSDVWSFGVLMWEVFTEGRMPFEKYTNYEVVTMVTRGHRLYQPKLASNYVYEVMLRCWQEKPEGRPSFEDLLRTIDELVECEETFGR

[9] = test system: Rattus norvegicus; assay: Time at which plasma concentration stays above in vitro IC70 for BTK autophosphorylation at Y223 in rat whole blood in Lewis rat collagen-induced arthritis model at 1 mg/kg, po bid measured during 24 hrs dosing
[10] = test system: Rattus norvegicus; assay: Time at which plasma concentration stays above in vitro IC90 for BTK autophosphorylation at Y223 in rat whole blood in Lewis rat collagen-induced arthritis model at 1 to 16 mg/kg, po qd measured during 24 hrs dosing
[11] = Permeability across apical to basolateral in MDCK1 cells; assay type: ADME, cell-based, Canis lupus familiaris; settings: dog, MDCK; read-out: permeability
[12] = test system: Rattus norvegicus; assay: Antiinflammatory activity in Lewis rat collagen-induced arthritis model assessed as reduction in ankle cartilage damage at 0.06 to 16 mg/kg, po administered qd for 16 days; assay type: functional, organism-based
[13] = target: Cav1.2 (Homo sapiens, UniProt Q13936); assay: Inhibition of human Cav1.2 expressed in CHO cells at 1 uM incubated for 3 to 5 mins by Qpatch clamp assay; assay type: cell-based; settings: CHO cells expressing human Cav1.2
[14] = test system: Rattus norvegicus; assay: Time at which plasma concentration stays above in vitro IC70 for BTK autophosphorylation at Y223 in rat whole blood in Lewis rat collagen-induced arthritis model at 1 to 16 mg/kg, po qd measured during 24 hrs dosing
[15] = target: Nav1.5 (Homo sapiens, UniProt Q14524); assay: Inhibition of human Nav1.5 expressed in CHO cells at 1 uM incubated for 3 to 5 mins by Qpatch clamp assay; assay type: cell-based; settings: CHO cells expressing human Nav1.5
[16] = physchem; settings: buffer, pH 7.4
[17] = target: Cytochrome P450 3A4 (Homo sapiens, UniProt P08684); assay: Inhibition of CYP3A4 (unknown origin); assay type: ADME
[18] = test system: Rattus norvegicus; assay: Antiinflammatory activity in Lewis rat collagen-induced arthritis model assessed as reduction in ankle diameter AUC at 16 mg/kg, po administered qd for 16 days relative to control; assay type: functional; settings: 384 h
[19] = test system: Rattus norvegicus; assay: Antiinflammatory activity in Lewis rat collagen-induced arthritis model assessed as reduction in ankle diameter AUC at 1 mg/kg, po administered qd for 16 days relative to control; assay type: functional; settings: 384 h
[20] = test system: PBL; assay: Genotoxicity in human PBL assessed as induction of micronuclei at 500 ug/ml in presence of rat liver S9 fraction by cytochalasin B-block method; assay type: toxicity, cell-based
[21] = target: ERBB2 (Homo sapiens, UniProt P04626); assay: Inhibition of recombinant human cytoplasmic His-tagged ERBB2 expressed in baculovirus at 1 uM by Z'-LYTE assay
[22] = target: LTK (Homo sapiens, UniProt P29376); assay: Inhibition of recombinant human cytoplasmic GST-tagged LTK expressed in baculovirus at 1 uM by Z'-LYTE assay
[23] = target: ERBB4 (Homo sapiens, UniProt Q15303); assay: Inhibition of recombinant human cytoplasmic GST-tagged ERBB4 expressed in baculovirus at 1 uM by Z'-LYTE assay
[24] = test system: Rattus norvegicus; assay: Antiinflammatory activity in Lewis rat collagen-induced arthritis model assessed as reduction in ankle cartilage damage at 0.125 to 2 mg/kg, po administered bid for 16 days; assay type: functional, organism-based
[25] = Oral bioavailability in rat at 1 mg/kg administered as single dose via cassette dosing; assay type: ADME, organism-based; settings: in vivo
[26] = test system: Escherichia coli; assay: Genotoxicity in Escherichia coli WP2 harboring uvrA deletion mutant after 48 to 72 hrs in absence of liver S9 fraction by Ames test; assay type: toxicity

Sequence of ERBB2 (P04626 whole entry): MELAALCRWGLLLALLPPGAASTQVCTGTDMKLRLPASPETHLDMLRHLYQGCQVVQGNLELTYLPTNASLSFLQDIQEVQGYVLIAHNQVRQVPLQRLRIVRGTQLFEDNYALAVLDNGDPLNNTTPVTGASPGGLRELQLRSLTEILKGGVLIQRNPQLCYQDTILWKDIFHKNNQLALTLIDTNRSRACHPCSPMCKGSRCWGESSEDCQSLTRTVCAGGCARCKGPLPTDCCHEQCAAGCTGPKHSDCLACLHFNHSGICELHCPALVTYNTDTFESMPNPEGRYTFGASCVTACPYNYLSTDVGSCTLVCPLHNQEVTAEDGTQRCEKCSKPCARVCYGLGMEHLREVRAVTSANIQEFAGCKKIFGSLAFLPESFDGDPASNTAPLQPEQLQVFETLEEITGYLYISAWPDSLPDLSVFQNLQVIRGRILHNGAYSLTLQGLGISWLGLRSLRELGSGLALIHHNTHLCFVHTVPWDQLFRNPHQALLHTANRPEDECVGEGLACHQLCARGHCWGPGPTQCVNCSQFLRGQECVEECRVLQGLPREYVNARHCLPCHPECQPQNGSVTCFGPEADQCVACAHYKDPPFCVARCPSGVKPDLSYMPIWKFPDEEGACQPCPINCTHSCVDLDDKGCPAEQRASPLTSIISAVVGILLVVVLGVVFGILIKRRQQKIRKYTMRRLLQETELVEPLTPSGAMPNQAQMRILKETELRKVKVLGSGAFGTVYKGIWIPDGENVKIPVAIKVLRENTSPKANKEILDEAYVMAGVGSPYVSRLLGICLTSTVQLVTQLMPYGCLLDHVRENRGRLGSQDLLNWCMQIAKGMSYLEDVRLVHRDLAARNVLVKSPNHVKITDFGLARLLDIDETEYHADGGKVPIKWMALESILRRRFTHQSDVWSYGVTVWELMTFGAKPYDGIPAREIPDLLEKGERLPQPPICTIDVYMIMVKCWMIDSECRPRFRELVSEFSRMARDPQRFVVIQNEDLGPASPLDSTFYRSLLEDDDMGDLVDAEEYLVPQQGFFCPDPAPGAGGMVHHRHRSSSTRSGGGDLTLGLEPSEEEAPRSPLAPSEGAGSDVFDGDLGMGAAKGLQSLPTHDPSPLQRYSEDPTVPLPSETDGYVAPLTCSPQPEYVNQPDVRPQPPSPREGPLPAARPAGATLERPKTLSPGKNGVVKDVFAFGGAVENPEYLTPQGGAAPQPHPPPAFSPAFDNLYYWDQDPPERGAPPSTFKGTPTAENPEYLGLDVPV
Sequence of ERBB4 (Q15303 whole entry): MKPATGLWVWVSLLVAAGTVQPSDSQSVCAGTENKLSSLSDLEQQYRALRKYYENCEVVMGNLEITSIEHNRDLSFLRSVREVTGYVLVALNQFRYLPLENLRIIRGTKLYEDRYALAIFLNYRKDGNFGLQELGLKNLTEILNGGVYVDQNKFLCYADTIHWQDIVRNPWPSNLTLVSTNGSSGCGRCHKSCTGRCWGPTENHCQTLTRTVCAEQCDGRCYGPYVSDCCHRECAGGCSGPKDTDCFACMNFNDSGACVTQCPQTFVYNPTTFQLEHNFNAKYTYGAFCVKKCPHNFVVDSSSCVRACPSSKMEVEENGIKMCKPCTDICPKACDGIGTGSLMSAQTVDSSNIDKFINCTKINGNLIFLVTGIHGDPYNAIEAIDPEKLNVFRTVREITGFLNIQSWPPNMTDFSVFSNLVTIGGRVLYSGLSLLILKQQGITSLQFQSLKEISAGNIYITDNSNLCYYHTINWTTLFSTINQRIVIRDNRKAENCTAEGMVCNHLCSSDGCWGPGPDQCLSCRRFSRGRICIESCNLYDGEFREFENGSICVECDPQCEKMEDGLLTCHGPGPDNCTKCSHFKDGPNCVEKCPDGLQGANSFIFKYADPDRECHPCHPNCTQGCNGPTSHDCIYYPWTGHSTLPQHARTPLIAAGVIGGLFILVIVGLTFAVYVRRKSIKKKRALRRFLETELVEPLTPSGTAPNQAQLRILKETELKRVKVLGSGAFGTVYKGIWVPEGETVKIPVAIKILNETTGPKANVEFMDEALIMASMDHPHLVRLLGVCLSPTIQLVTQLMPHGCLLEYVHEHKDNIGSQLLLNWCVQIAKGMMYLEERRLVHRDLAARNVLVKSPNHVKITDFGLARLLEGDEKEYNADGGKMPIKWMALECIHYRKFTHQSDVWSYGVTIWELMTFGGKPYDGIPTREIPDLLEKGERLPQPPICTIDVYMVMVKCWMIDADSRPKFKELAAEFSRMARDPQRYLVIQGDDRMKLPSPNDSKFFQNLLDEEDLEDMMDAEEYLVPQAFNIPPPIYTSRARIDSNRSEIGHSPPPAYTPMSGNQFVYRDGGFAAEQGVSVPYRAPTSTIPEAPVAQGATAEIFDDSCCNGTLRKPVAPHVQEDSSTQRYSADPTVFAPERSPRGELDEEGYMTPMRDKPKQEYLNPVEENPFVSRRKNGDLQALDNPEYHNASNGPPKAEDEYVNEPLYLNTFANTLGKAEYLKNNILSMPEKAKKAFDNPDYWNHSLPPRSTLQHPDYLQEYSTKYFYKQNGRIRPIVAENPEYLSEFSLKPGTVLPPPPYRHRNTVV
Sequence of Cytochrome P450 2C9 (P11712 whole entry): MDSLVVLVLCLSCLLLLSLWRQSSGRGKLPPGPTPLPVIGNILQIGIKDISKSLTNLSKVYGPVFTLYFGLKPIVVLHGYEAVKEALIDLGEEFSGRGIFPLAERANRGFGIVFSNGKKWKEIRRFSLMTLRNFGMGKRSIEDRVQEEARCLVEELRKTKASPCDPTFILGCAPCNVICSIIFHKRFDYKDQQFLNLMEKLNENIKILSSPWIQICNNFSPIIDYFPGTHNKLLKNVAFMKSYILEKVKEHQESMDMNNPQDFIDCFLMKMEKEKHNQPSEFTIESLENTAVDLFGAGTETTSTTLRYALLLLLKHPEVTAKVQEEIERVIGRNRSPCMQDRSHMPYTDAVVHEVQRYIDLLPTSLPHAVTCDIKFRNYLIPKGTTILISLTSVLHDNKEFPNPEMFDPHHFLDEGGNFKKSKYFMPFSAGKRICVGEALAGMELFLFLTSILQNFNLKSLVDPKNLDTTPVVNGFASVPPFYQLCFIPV
Sequence of LTK (P29376 whole entry): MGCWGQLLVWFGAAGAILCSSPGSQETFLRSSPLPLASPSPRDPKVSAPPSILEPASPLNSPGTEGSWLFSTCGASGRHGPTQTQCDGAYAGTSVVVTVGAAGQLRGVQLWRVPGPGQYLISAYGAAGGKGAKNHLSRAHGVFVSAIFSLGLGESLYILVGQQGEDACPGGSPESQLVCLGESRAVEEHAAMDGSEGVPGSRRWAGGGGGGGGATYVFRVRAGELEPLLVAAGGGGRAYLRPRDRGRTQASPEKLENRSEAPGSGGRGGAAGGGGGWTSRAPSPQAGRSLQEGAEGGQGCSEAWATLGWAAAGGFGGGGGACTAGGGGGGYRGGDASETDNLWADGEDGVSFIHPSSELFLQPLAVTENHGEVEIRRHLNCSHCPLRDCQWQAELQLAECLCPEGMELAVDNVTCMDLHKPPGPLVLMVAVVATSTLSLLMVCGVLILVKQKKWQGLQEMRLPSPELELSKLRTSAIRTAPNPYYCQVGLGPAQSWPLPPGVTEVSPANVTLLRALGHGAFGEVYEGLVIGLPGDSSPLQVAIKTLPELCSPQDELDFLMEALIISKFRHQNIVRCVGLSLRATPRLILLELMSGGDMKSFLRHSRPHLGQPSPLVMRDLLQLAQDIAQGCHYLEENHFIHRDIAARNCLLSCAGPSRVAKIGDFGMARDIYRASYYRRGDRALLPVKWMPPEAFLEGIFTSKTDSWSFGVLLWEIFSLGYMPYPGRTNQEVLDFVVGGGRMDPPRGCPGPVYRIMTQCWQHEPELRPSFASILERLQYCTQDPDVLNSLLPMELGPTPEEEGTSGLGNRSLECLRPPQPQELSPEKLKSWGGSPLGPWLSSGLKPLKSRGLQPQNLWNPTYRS
Sequence of Cytochrome P450 3A4 (P08684 whole entry): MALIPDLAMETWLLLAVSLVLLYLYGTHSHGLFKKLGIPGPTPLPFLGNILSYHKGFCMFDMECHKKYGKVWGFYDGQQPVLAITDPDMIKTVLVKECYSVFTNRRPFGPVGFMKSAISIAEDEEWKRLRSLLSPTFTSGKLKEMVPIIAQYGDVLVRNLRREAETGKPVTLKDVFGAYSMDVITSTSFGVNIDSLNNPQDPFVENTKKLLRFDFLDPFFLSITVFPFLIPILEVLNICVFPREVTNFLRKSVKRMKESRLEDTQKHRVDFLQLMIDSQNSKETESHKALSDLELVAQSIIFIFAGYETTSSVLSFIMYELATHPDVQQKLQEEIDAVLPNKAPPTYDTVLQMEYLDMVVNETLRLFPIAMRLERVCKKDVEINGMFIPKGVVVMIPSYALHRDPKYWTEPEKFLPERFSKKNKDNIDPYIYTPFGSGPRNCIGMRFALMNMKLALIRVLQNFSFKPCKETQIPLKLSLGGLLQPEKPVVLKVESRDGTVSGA

solubility [1]: 3 µg/mL (≈ 4.51 µM) | clearance [3]: 27.4 mL/min/kg | pIC50 [4]: < 5.30 | half-life [5]: 2.2 h | Vd [6]: 5.42 L/kg | inhibition at 1 µM [8]: 23% | Papp A→B [11]: 15.1 ×10⁻⁶ cm/s | logD [16]: 1.6 | pIC50 [17]: < 5.30 | inhibition at 1 µM [21]: -1% | inhibition at 1 µM [22]: -1% | inhibition at 1 µM [23]: 1% | bioavailability [25]: 65.1%
SMILES: C[C@H]1CN(C2COC2)CCN1c1ccc(Nc2cc(-c3ccnc(N4CCn5c(cc6c5CC(C)(C)C6)C4=O)c3CO)cn(C)c2=O)nc1 [FENEBRUTINIB]
inhibition in vivo at 0.125 mg/kg [2]: 50% | Activity [7]: Non-Toxic | Time [9]: 12 h | Time [10]: 12 h | Activity [12]: Active | inhibition at 1 µM [13]: 1.5% | Time [14]: 12 h | inhibition at 1 µM [15]: 0.6% | inhibition in vivo at 16 mg/kg [18]: 99% | inhibition in vivo at 1 mg/kg [19]: 71% | Activity [20]: Non-Toxic | Activity [24]: Active | Activity [26]: Non-Toxic
